Experimental data published in patent publication US7507749B2, “Antitumor agents” (priority 2001, dated 2009).
Several values for one entry are separate records, joined by “and”; a condition that tells them apart may be missing. Equal entries are not always repeated. Where two headings read alike, the source gives them in different places.

Columns and labels:
[1] = tested on: pancreatic ductal adenocarcinoma 03
From the text: Pancreatic ductal adenocarcinoma-03, B16-melanoma, mammary adenocarcinoma-16/C/Adr, mammary adenocarcinoma-17/Adr, colon adenocarcinoma-26, and mammary adenocarcinoma-16/C were used in the studies.
(§1) Tumors were maintained in the mouse strain of origin C57B1/6 (for Panc03, B16), Balb/c (for Colon 26) and C3H (for the mammary tumors). Tumors were transplanted into the appropriate F1 hybrid (BDF1=C57B1/6 female X DBA/2 male) or the strain of origin for the chemotherapy trials. Individual mouse body weights for each experiment were within 5 grams, and all mice were over 17 grams at the start of therapy. The mice were supplied food and water ad libitum.
(§2) Animals were pooled, implanted subcutaneously with 30 to 60 mg tumor fragments by a 12 gauge trocar on day 0, and again pooled before unselective distribution to the various treatment and control groups. For early stage treatment, chemotherapy was started within 1 to 3 days after tumor implantation while the number of cells was relatively small (10^7 to 10^8 cells). For upstaged or advanced staged trials, the tumors were allowed to grow for five or more days before treatment was started. Tumors were measured with a caliper twice weekly. […] Tumor weights are estimated from two-dimensional measurements:
(§3) Tumor weight (in mg)=(a×b^2)/2, where a and b are the tumor length and width in (mm), respectively.
(§4) The following quantitative endpoints were used to assess antitumor activity: • a) Tumor growth delay (T-C value), where T is the median time (in days) required for the treatment group tumors to reach a predetermined size (e.g., 1000 mg), and C is the median time (in days) for the control group tumors to reach the same size. Tumor-free survivors are excluded from these calculations (cures are tabulated separately). This value is an important criterion of antitumor effectiveness because it allows the quantification of tumor cell kill. • b) Calculation of tumor cell kill for subcutaneously (SC) growing tumors, the log10 cell kill was calculated from the following formula:
(§5) The conversion of the T-C values to log10 cell kill is possible because the Td of tumors regrowing post treatment (Rx) approximates the Td values of the tumors in untreated control mice.
In selected cases, both for historic in vivo evaluation data as well as data presented here, it is of value to compare log kill numbers from trials of markedly different testing schedules. […] It should be noted that an activity rating of +++ to ++++ is needed to effect partial regression (PR) or complete regression (CR) of 100 to 300 mg size masses of most transplanted solid tumors of mice. Thus, an activity rating of + or ++ would not be scored as active by usual clinical criteria. A PR is a reduction in tumor mass to less than 50% of pretreatment size. A CR is a reduction in tumor mass to below palpable size (i.e., reduction to zero detectable mass).
(§6) The T/C value in percent is an indication of antitumor effectiveness: A T/C=0% means no tumor growth. […] A T/C value <10% is considered to indicate highly significant antitumor activity, and is the level used by NCI to justify a clinical trial if toxicity, formulation, and certain other requirements are met (termed DN-2 level activity).
Female BDFl mice (obtained from NCI-Raleigh) (date of birth (hereinafter D.O.B.) Mar. 27, 2000; date of arrival (hereinafter D.O.A.) Apr. 9, 2000) were implanted (tumor implant date (hereinafter D.O.T.) Mar. 17, 2000) with pancreatic ductal adenocarcinoma 03 tumor, divided into treatment and control groups.

colon carcinoma 26 = conditions: for Toxicity of dose group: 400 mg/kg, omitted from Table 8
Description: In this trial the R-enantiomers of XK-469, compound 22c, and compound 22b were compared against advanced staged colon carcinoma 26 in female Balb/c mice. […] Cage #2 was 22b at 400 mg/kg and Cage #4 was 22c at 400 mg/kg.
The XK469-R, 22b, and 22c compound doses were all prepared the same, using 3% ethanol, 1% POE-80, and 0.5% sodium bicarbonate. The injection volume was 0.2 mu/mouse IV. […] The mice were Balb/c female mice: DOB Feb. 12, 2001; DOA Mar. 27, 2001; DOT Sep. 8, 2001, with an average body weight of 24.7 grams at the start of Rx administration. The tumor was Colon Carcinoma-26 passage 141; date of implant Sep. 8, 2001, and implanted at 30 to 60 mg fragments bilaterally SC. All tumors were 63 to 171 mg on day 6, the day of first Rx.

[2] = tested on: mammary adenocarcinoma-16/C/Adr; assay: Test C: evaluation against early stage mammary adenocarcinoma-16/C/Adr; assay type: in vivo
From the text: Early stage mammary adenocarcinoma-16/C/Adr is a p-glycoprotein negative multidrug resistant tumor. C3H female mice were obtained from NCI-Kingston-CRL (D.O.B. Apr. 3, 2000; D.O.A. May 16, 2000). […] The control animals (Cage #1) received no treatment.

B16 melanoma [3] = tested on: B16 melanoma
From the text: as §1, §2, §3, §4, §5
It should be noted that an activity rating of +++ to ++++ is needed to effect partial regression (PR) or complete regression (CR) of 100 to 300 mg size masses of most transplanted solid tumors of mice. Thus, an activity rating of + or ++ would not be scored as active by usual clinical criteria. A PR is a reduction in tumor mass to less than 50% of pretreatment size. A CR is a reduction in tumor mass to below palpable size (i.e., reduction to zero detectable mass).
as §6
The mice were divided into a control group and three experimental groups. The control group (Cage #1) received no treatment.
A −20% body weight loss is considered excessively toxic by N.C.I. standards.

[4] = tested on: mammary adenocarcinoma-17/Adr; assay: Test D: racemic compound 22c against early stage mammary adenocarcinoma-17/Adr; assay type: in vivo; conditions: for % Body Wt Loss at Nadir / % T/C mass / Activity Rating / Day of Nadir / Drug Deaths / Growth Delay / Log Kill / Median Tumor Mass on Day 10 (Range) / Tumor Free day-42: days 1,2,3,6,7,8
Description: Female C3H/HeN (MTV-neg) mice were obtained from N.C.I. Frederick (D.O.B. was Oct. 9, 2000; D.O.A. was Nov. 14, 2000). […] Then, P.B.S. was added, and the pH was adjusted to 7 with HCl. 0.2 ml per injection was administered IV.

B16 melanoma [5] = conditions: historic, B16 melanoma implanted subcutaneously (SC); cited from earlier work
[6] = tested on: pancreatic ductal adenocarcinoma 03; conditions: historic; cited from earlier work
[7] = Cage 7, IV daily days 3-9, 7 inj, total 336 mg/kg
[8] = Cg 3, IV 50 mg/kg/inj days 6,8,10,13,15, total 250 mg/kg
[9] = Cage 2, IV 42 mg/kg twice daily days 1-3 and 11-13, total 504 mg/kg
[10] = Cage 3, IV 27 mg/kg twice daily days 1-3 and 11-13, total 324 mg/kg
[11] = Cage 2, IV 40 mg/kg/inj days 1-4, 8 inj, total 320 mg/kg
[12] = Cage 3, IV 50 mg/kg/inj daily days 1-5, total 250 mg/kg
[13] = Cage 4, IV 30 mg/kg/inj daily days 1-6, total 180 mg/kg
[14] = Cg 5, IV 50 mg/kg/inj days 6,8,10,13,15, total 250 mg/kg
[15] = Cage 3, IV 50, 62.5, then 60 mg/kg/inj, total 352.5 mg/kg
[16] = Cage 4, IV 30, 37.5, then 36 mg/kg/inj, total 211.5 mg/kg

SMILES: CC(Oc1ccc(Oc2ccc3ccc(Cl)cc3n2)cc1)C(=O)O (racemic) [Compound 22b, 2-[4-(7-chloroquinolin-2-yloxy)phenoxy]propanoic acid]
- % T/C mass [1, 7]: 0%
- Activity Rating [1, 7]: +++ (2.0-2.8)
- Drug Deaths [1, 7]: 0/5
- Growth Delay In Days [1, 7]: 17.5 days
- Log Kill [1, 7]: 2.6
- Median Tumor Mass on Day 14 (Range) [1, 7]: 0 (0-126) mg
- Tumor Free day-37 [1, 7]: 0/5
- % Body Wt Loss at Nadir ([1]; mouse, in vivo): −8.9%
- Day of Nadir ([1]; mouse, in vivo): 11 days
- Toxicity of dose group (colon carcinoma 26; Cage 2): toxic
- Activity Rating (colon carcinoma 26; [8]): ++ (1.3-1.9)
- CR's (colon carcinoma 26; [8]): 1/6
- Log Kill (colon carcinoma 26; [8]): 1.4
- % Body Wt Loss at Nadir [2, 9]: −15%
- % T/C mass [2, 9]: 0%
- Activity Rating [2, 9]: +++ (2.0-2.8)
- Day of Nadir [2, 9]: 7 days
- Day of full recovery of body weight [2, 9]: 12 days
- Drug Deaths [2, 9]: 0/6
- Growth Delay [2, 9]: 8.0 days
- Log Kill [2, 9]: 2.0
- Median Tumor Mass on Day 11 (Range) [2, 9]: 0 (0-308) mg
- Tumor Free day-18 [2, 9]: 0/6
- Neuromuscular toxicity ([2]; Cage 2, IV 42 mg/kg twice daily, lasting about ten minutes post injection): modest neuromuscular gait disturbance
- Neuromuscular toxicity ([2]; Cage 3, IV 27 mg/kg twice daily): insignificant gait disturbance
- % Body Wt Loss at Nadir [2, 10]: −1.1%
- % T/C mass [2, 10]: 53%
- Activity Rating [2, 10]: inactive
- Day of Nadir [2, 10]: 7 days
- Day of full recovery of body weight [2, 10]: 8 days
- Drug Deaths [2, 10]: 0/6
- Growth Delay [2, 10]: 2.25 days
- Log Kill [2, 10]: 0.6
- Median Tumor Mass on Day 11 (Range) [2, 10]: 741 (516-1199) mg
- Tumor Free day-18 [2, 10]: 0/6
- % T/C mass (B16 melanoma [3]; [11]): 0%
- Cause of death (B16 melanoma [3]; [11]): marrow toxicity
- Drug Deaths (B16 melanoma [3]; [11]): 1/5
- Growth Delay (B16 melanoma [3]; [11]): 12.5 days
- Log Kill (B16 melanoma [3]; [11]): 3.8
- Median Tumor Mass on Day 9 (Range) (B16 melanoma [3]; [11]): 0 (all zeros) mg
- Tumor Free day-24 (B16 melanoma [3]; [11]): 0.5
- Activity Rating (B16 melanoma [3]; Cage 2, IV 40 mg/kg/inj days 1-4, 8 inj, total 320 mg/kg, listed as 22b (racemic)): toxic
- % T/C mass (B16 melanoma [3]; [12]): 0%
- Activity Rating (B16 melanoma [3]; [12]): +++ (2.0-2.8)
- Drug Deaths (B16 melanoma [3]; [12]): 0/5
- Growth Delay (B16 melanoma [3]; [12]): 8.5 days
- Log Kill (B16 melanoma [3]; [12]): 2.6
- Median Tumor Mass on Day 9 (Range) (B16 melanoma [3]; [12]): 0 (all zeros) mg
- Tumor Free day-24 (B16 melanoma [3]; [12]): 0/5
- % T/C mass (B16 melanoma [3]; [13]): 15.6%
- Activity Rating (B16 melanoma [3]; [13]): ++ (1.3-1.9)
- Drug Deaths (B16 melanoma [3]; [13]): 0/5
- Growth Delay (B16 melanoma [3]; [13]): 6.0 days
- Log Kill (B16 melanoma [3]; [13]): 1.8
- Median Tumor Mass on Day 9 (Range) (B16 melanoma [3]; [13]): 221 (63-334) mg
- Tumor Free day-24 (B16 melanoma [3]; [13]): 0/5
- Day of Nadir (B16 melanoma [3]; mouse, in vivo): 8 days
- Day of full recovery of body weight (B16 melanoma [3]; mouse, in vivo): 11 days and 9 days
- Duration of neuromuscular toxicity post injection (B16 melanoma [3]; mouse, in vivo): over 20 minutes
- Neuromuscular toxicity (slowing of nerve conduction) (B16 melanoma [3]; mouse, in vivo): substantial post injection neuromuscular toxicity and mild

SMILES: CC(Oc1ccc(Oc2ccc3ccc(Br)cc3n2)cc1)C(=O)O (racemic) [Racemic 22c, 2-[4-(7-bromoquinolin-2-yloxy)phenoxy]propanoic acid]
- Toxicity of dose group (colon carcinoma 26; Cage 4): toxic
- Activity Rating (colon carcinoma 26; [14]): ++++ (>2.8)
- CR's (colon carcinoma 26; [14]): 3/6
- tumor free survivors on day 55 (colon carcinoma 26; [14]): 3/6
- Duration of slowing of nerve conduction ([4]; Cage 3, 60 to 62.5 mg/kg dose IV): approximately 10 minutes
- Neuromuscular toxicity ([4]; Cage 3, 60 to 62.5 mg/kg dose IV, mild gait disturbance): modest slowing of nerve conduction
- % Body Wt Loss at Nadir [4, 15]: −5.5%
- % T/C mass [4, 15]: 0%
- Activity Rating [4, 15]: ++++ (>2.8)
- Day of Nadir [4, 15]: 11 days
- Drug Deaths [4, 15]: 0/5
- Growth Delay [4, 15]: 14 days
- Log Kill [4, 15]: 4.2
- Median Tumor Mass on Day 10 (Range) [4, 15]: 0 (0-63) mg
- Tumor Free day-42 [4, 15]: 0/5
- Day tumors reached 1000 mg (range) ([4]; Cage 3, total 352.5 mg/kg IV): 21 (range 19-42) day
- % Body Wt Loss at Nadir [4, 16]: −4.1%
- % T/C mass [4, 16]: 5.6%
- Activity Rating [4, 16]: ++++ (>2.8)
- Day of Nadir [4, 16]: 13 days
- Drug Deaths [4, 16]: 0/5
- Growth Delay [4, 16]: 10 days
- Log Kill [4, 16]: 3.0
- Median Tumor Mass on Day 10 (Range) [4, 16]: 172 (0-344) mg
- Tumor Free day-42 [4, 16]: 0/5
- Neuromuscular toxicity ([4]; Cage 4, IV 30-37.5 mg/kg/inj, total 211.5 mg/kg): no gait disturbance
- Day tumors reached 1000 mg (range) ([4]; Cage 4, total 211.5 mg/kg IV): 17 (range 14-21) day

SMILES: O=NN(CCCl)C(=O)NCCCl [BCNU]
- activity rating (responsiveness of the tumor to standard agents) (B16 melanoma [5]): ++++ (>2.8)

SMILES: O=c1[nH]cc(F)c(=O)[nH]1 [Compound 5-FU, 5-FU]
- activity rating (sensitivity of the tumor to standard agents) [6]: + (0.7-1.2)

SMILES: CC[C@@]1(O)C(=O)OCc2c1cc1n(c2=O)Cc2cc3ccccc3nc2-1 [camptothecin]
- activity rating (responsiveness of the tumor to standard agents) (B16 melanoma [5]): +or +/−

SMILES: CC(=O)O[C@H]1C(=O)[C@@]2(C)[C@H]([C@H](OC(=O)c3ccccc3)[C@]3(O)C[C@H](OC(=O)[C@H](O)[C@@H](NC(=O)c4ccccc4)c4ccccc4)C(C)=C1C3(C)C)[C@]1(OC(C)=O)CO[C@@H]1C[C@@H]2O [taxol]
- activity rating (responsiveness of the tumor to standard agents) (B16 melanoma [5]): +or +/−
- activity rating (sensitivity of the tumor to standard agents) [6]: ++++ (>2.8)
